The record followed here is PubChem BioAssay AID2060898 (Molecular Pharmacology Branch, DTP, NCI, 2025).

Structures are written as SMILES. Values joined by “and” are separate entries in the source; they are usually repeats but may differ in a detail not shown here. Equal values may be shown once.

The test relates to 616215-338-R-J1-PDC complex spheroid viability. Description: Anticancer human tumor 616215-338-R-J1-PDC patient-derived colon adenocarcinoma cell line growth inhibition [RAS]. The conditions noted are these: for viability, T/C: stronger effect = lower value. An excerpt:
RAS pathway inhibitors in Combinations in Complex Spheroids
A high-throughput screen of multi-cell type tumor spheroids was designed to identify active combinations of RAS pathway inhibitors and targeted small molecules. Complex spheroids include a stromal component modeled by human endothelial cells (HUVEC) and fibroblasts modeled by human mesenchymal stem cells (MSCs). The concentration ranges selected for each drug and investigational agent were based upon clinically achievable concentrations if the clinical Cmax of the agent was known.
Compounds. The drugs and investigational agents: abemaciclib (NSC768073), cobimetinib (NSC768068), divarasib (GDC6063, NSC841802), docetaxel (NSC628503), GDC-1971 (RLY-1971, NSC841576), gemcitabine (NSC613327), inavolisib (NSC800729), ipatasertib (NSC767898), KB-0742 (NSC834161), MRTX-1133 (NSC836407), osimertinib (NSC779217), RMC-4630 (NSC839698), RMC-6236 (NSC851965), RMC-6291 (NSC852671), Ro-3306 (NSC812927), sapanisertib (NSC764658), SN-38 (NSC673596), staurosporine (NSC755774), SY5609 (NSC837396), and tovorafenib (DAY101, NSC766906), were obtained from the National Cancer Institute (NCI) Developmental Therapeutics Program Chemical Repository. The FDA-approved anticancer drug set is available from the NCI Developmental Therapeutics Program. […] The stock solutions were prepared in dimethyl sulfoxide (DMSO, Sigma-Aldrich, St. Louis, MO, cat. D2650) at 800-fold the tested concentration and stored at -70 degrees C prior to their use. All drugs and investigational agents were tested over a range starting from a high concentration at or near the clinical Cmax and decreasing in half-log increments. If the clinical Cmax for an agent had not been determined, the highest concentration tested was 10 microM.
Cell Culture. All cells were maintained in an incubator at 37 degrees C and 5% CO2 with 95% humidity. The PDC lines were cultured according to standard operating procedures established by the NCI PDMR. All PDCs were thawed and cultured in Matrigel-coated flasks prepared with a working solution of 1X Ham's F-12 nutrient mix, without supplementation (Invitrogen, Waltham, MA, cat. 11765054), 100 U/mL penicillin-streptomycin (Invitrogen, cat. 15140122), and 2.5% Matrigel (Corning Inc., Corning, NY, cat. 354248) for the first three passages. The 362531-283-R-J2-PDC and 782815-120-R-J1-PDC lines were cultured in 6C/Colon 1B media, which includes advanced DMEM/F-12 (Thermo Fisher Scientific, cat. 12634028), 10 mM HEPES (Thermo Fisher Scientific, cat. 15630080), 1X GlutaMAX supplement (Thermo Fisher Scientific, cat. 35050061), 0.1 mg/mL primocin (InvivoGen, San Diego, CA, cat. ant-pm-2), 10% defined fetal bovine serum, heat inactivated (HyClone Laboratories Inc., Logan, UT, cat. SH30070.03HI), 50% L-WRN conditioned media (ATCC, cat. CRL-3276), 1.25 mM N-Acetyl-L-cysteine (Sigma-Aldrich, cat. A9165), 10 mM nicotinamide (Sigma-Aldrich, cat. N0636), 1X B-27 supplement (Thermo Fisher Scientific, cat. 17504044), 1X N-2 supplement (Thermo Fisher Scientific, cat. 17502048), 50 ng/mL human EGF (Thermo Fisher Scientific, cat. PHG0311), and 10 microM Y-27632 dihydrochloride (Tocris Bioscience, cat. 1254). The K12877-001-R-J1-PDC line was cultured in 6I media, which includes all 6C/Colon 1B media plus 10 ng/mL human FGF-10 (PeproTech, cat. 100-26), 1 ng/mL human FGF-2 (PeproTech, cat. 100-18B), 1 µM prostaglandin E2 (Tocris Bioscience, cat. 2296), […] hydrocortisone (Sigma-Aldrich, cat. H4001), and […] bovine insulin (Sigma-Aldrich, cat. I6634). The K86415-001-R-J1-PDC line was cultured in 6D media, which includes all 6C/Colon 1B media components minus the L-WRN conditioned media. The 485176-168-R4-J1-PDC was cultured in PANC media, which includes all 6C/Colon 1B media plus 100 ng/mL human FGF-10 (PeproTech, cat. 100-26), 500 nM SB-431542 (Selleckchem, cat. S1067), and 10 nM gastrin (Tocris Bioscience, cat. 3006). […]

Setting [1] is: compound alone, run of 06/10/2024.
Setting [2] is: compound alone, run of 05/20/2024.
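Note: spheroids exposed to agents for seven days before viability readout.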

Broadly, the viability, T/C is the ratio of treated to control. One may read the IC50 as the concentration that inhibits the measured activity by half. On to `C#Cc1c(F)ccc2cc(O)cc(-c3ncc4c(N5CC6CCC(C5)N6)nc(OCC56CCCN5CC(F)C6)nc4c3F)c12` (configuration not stated), for which the viability, T/C is 107% [middle of 8 runs] (compound 0.0316 µM); 107% [middle of 8 runs] (compound 0.1 µM); 110% [middle of 8 runs] (compound 0.316 µM); 108% [middle of 8 runs] (compound 1 µM); 102% [middle of 8 runs] (compound 3.16 µM); 70.6% [middle of 8 runs] (compound 10 µM). Further, under setting [1], the IC50 is above 10 µM.
As for `C=CC(=O)N1CCN(c2nc(OCC3CCCN3C)nc3c(F)c(-c4nc(N)cc(C)c4C(F)(F)F)c(Cl)cc23)C(C)C1` (configuration not stated), the viability, T/C (compound 0.00316 µM) is 100% [middle of 12 runs]; the viability, T/C (compound 0.01 µM) is 102% [middle of 12 runs]; the viability, T/C (compound 0.0316 µM) is 99.4% [middle of 12 runs]; the viability, T/C (compound 0.1 µM) was 102% [middle of 12 runs]; the viability, T/C (compound 0.316 µM) was 104% [middle of 12 runs]; the viability, T/C (compound 1 µM) is 103% [middle of 12 runs]. The IC50 runs as follows: under setting [1], above 1 µM; (curve of compound) above 1 µM.
With `C=CC(=O)Nc1cc(Nc2nccc(-c3cn(C)c4ccccc34)n2)c(OC)cc1N(C)CCN(C)C`, the viability, T/C was 96.5% [middle of 4 runs] (compound 0.00316 µM); 100% (2×) and 96% and 97.4% (compound 0.01 µM); 103% [middle of 4 runs] (compound 0.0316 µM); 105% [middle of 4 runs] (compound 0.1 µM); 109% [middle of 4 runs] (compound 0.316 µM); 74.3% [middle of 4 runs] (compound 1 µM). Besides, under “curve of compound”, the IC50 was above 1 µM.
As to `CC(C)NCC(C(=O)N1CCN(c2ncnc3c2C(C)CC3O)CC1)c1ccc(Cl)cc1` (configuration not stated), the viability, T/C was 105% [middle of 4 runs] (compound 0.0316 µM); 100% [middle of 4 runs] (compound 0.1 µM); 100% [middle of 4 runs] (compound 0.316 µM); 101% [middle of 4 runs] (compound 1 µM); 95.3% (2×) and 87.8% and 95.7% (compound 3.16 µM); 49.3% [middle of 4 runs] (compound 10 µM).
Regarding `CC(C)n1nc(-c2ccc3oc(N)nc3c2)c2c(N)ncnc21`, the viability, T/C by setting is: (compound 0.000316 µM) 99.5% (2×) and 101% and 97.1%; (compound 0.001 µM) 105% [middle of 4 runs]; (compound 0.00316 µM) 94.6% and 107% (2×) and 98%; (compound 0.01 µM) 107% [middle of 4 runs]; (compound 0.0316 µM) 110% [middle of 4 runs]; (compound 0.1 µM) 75.2% [middle of 4 runs]. The IC50 (curve of compound) was above 0.1 µM.
Regarding `CC(Nc1ccc2c(c1)OCCn1cc(N3C(=O)OCC3C(F)F)nc1-2)C(N)=O` (configuration not stated), the viability, T/C by setting is: (compound 0.0316 µM) 111% [middle of 4 runs]; (compound 0.1 µM) 108% [middle of 4 runs]; (compound 0.316 µM) 110% [middle of 4 runs]; (compound 1 µM) 107% [middle of 4 runs]; (compound 3.16 µM) 102% [middle of 4 runs]; (compound 10 µM) 83.5% [middle of 4 runs]. For the same molecule, under “curve of compound”, the IC50 is above 10 µM.
For the molecule `CC1(C)CCC(Nc2ncc(C(F)(F)F)c(-c3c[nH]c4c(P(C)(C)=O)c(C#N)ccc34)n2)CN1` (configuration not stated), the viability, T/C is 98.8% [middle of 4 runs] (compound 0.000949 µM); 101% [middle of 4 runs] (compound 0.003 µM); 66.1% [middle of 4 runs] (compound 0.00949 µM); 40.8% [middle of 4 runs] (compound 0.03 µM); 37% [middle of 4 runs] (compound 0.0949 µM); 35.2% [middle of 4 runs] (compound 0.3 µM). The IC50 (curve of compound) is 20.3 nM [middle of 4 runs].
For `CCN1CCN(Cc2ccc(Nc3ncc(F)c(-c4cc(F)c5nc(C)n(C(C)C)c5c4)n3)nc2)CC1`, the viability, T/C by setting is: (compound 0.01 µM) 104% [middle of 4 runs]; (compound 0.0316 µM) 113% [middle of 4 runs]; (compound 0.1 µM) 117% (3×) and 120%; (compound 1 µM) 64.1% (2×) and 70.2% and 59.4%. In addition, the IC50 (curve of compound) is above 1 µM.
For the molecule `CCc1c2c(nc3ccc(O)cc13)-c1cc3c(c(=O)n1C2)COC(=O)[C@]3(O)CC`, the viability, T/C is, setting by setting: (compound 0.000949 µM) 104% [middle of 4 runs]; (compound 0.003 µM) 105% [middle of 4 runs]; (compound 0.03 µM) 37.2% [middle of 4 runs]; (compound 0.0949 µM) 24.3% [middle of 4 runs]; (compound 0.3 µM) 16.9% [middle of 4 runs].
Turning to `CCn1c(-c2cc(N3CCN(C)CC3)cnc2C(C)OC)c2c3cc(ccc31)-c1csc(n1)CC(NC(=O)C1CC1C)C(=O)N1CCCC(N1)C(=O)OCC(C)(C)C2` (configuration not stated), the viability, T/C is, setting by setting: (compound 0.000949 µM) 107% [middle of 8 runs]; (compound 0.003 µM) 106% [middle of 8 runs]; (compound 0.00949 µM) 81.7% [middle of 8 runs]; (compound 0.03 µM) 53.7% [middle of 8 runs]; (compound 0.0949 µM) 40.6% [middle of 8 runs]; (compound 0.3 µM) 37.5% [middle of 8 runs]. Besides, the IC50 under setting [2] is 41.2 nM [middle of 8 runs].
On to `CCn1c(-c2cccnc2C(C)OC)c2c3cc(ccc31)N1CCOC(CC(NC(=O)C(C(C)C)N(C)C(=O)C3(F)CCN(C(=O)C#CC(C)(C)N(C)C)CC3)C(=O)N3CCCC(N3)C(=O)OCC(C)(C)C2)C1` (configuration not stated), for which the viability, T/C is, setting by setting: (compound 0.000949 µM) 102% [middle of 8 runs]; (compound 0.003 µM) 102% [middle of 8 runs]; (compound 0.00949 µM) 107% [middle of 8 runs]; (compound 0.03 µM) 106% [middle of 8 runs]; (compound 0.0949 µM) 110% [middle of 8 runs]; (compound 0.3 µM) 109% [middle of 8 runs]. For the same molecule, the IC50 under setting [2] was above 0.3 µM.
As for `Nc1ccn(C2OC(CO)C(O)C2(F)F)c(=O)n1` (configuration not stated), the viability, T/C was 101% [middle of 4 runs] (compound 0.00316 µM); 46.9% [middle of 4 runs] (compound 0.01 µM); 29.4% [middle of 4 runs] (compound 0.0316 µM); 16.2% [middle of 4 runs] (compound 0.1 µM); 15.4% [middle of 4 runs] (compound 0.316 µM); 15.7% [middle of 4 runs] (compound 1 µM). In addition, where the note is “curve of compound”, the IC50 was 9.77 nM [middle of 4 runs].
With `O=C(c1ccc(F)c(F)c1Nc1ccc(I)cc1F)N1CC(O)([C@@H]2CCCCN2)C1`, the viability, T/C was 111% [middle of 4 runs] (compound 0.00316 µM); 102% (2×) and 95.7% and 113% (compound 0.01 µM); 81.5% [middle of 4 runs] (compound 0.0316 µM); 41.5% [middle of 4 runs] (compound 0.1 µM); 19.9% [middle of 4 runs] (compound 0.316 µM); 5.56% [middle of 4 runs] (compound 1 µM). Moreover, the IC50 (curve of compound) was 78 nM [middle of 4 runs].
